Results on five substances are retold here after patent US20030219451A1, “Stable helical C peptides and uses therefor” (priority 2001, published 2003).

Data set [1] addresses HIV-1 gp41 envelope glycoprotein (HXB2 envelope) (HIV-1 (HXB2)) (UniProt P04578). Nature of the data set: cell-based or functional assay.
The nature of data set [2]: Circular dichroism spectroscopy. In kind it is physicochemical. Particulars: PBS, pH 7.0, 25° C., C34-GCN4 with about 0.7 M guanidine hydrochloride.
Description: The guanidine hydrochloride used to solubilize C34-GCN4 absorbs light at wavelengths below 210 nm. Experimental conditions were PBS, pH 7.0, 25° C.
CD spectra were measured on an Aviv 60DS spectrapolarimeter at 25° C. in phosphate buffered saline (PBS; 10 mM sodium phosphate, 150 mM NaCl, pH 7.0). […] Guanidine concentrations were measured by refractometry.
For data set [3], the system named is recombinant luciferase-expressing HIV-1 infecting HOS-CD4/Fusin cells. As to conditions: C34 data taken from Chan et al., PNAS 95:15613 (1998); read-out: Viral Infectivity Assay (IC50 in nM); cited from earlier work.
Data set [4] deals with HIV-1 envelope mediated fusion of CHO gp160 cells with CD4 HeLa cells. As to conditions: C34 data taken from Chan et al., PNAS 95:15613 (1998); read-out: Cell-Cell Fusion Assay (IC50 in nM); cited from earlier work.
The test system is the same in data set [5]. As for the experimental part:
The peptides were tested for inhibiting the fusion of HIV-1 Env expressing cells (CHO gp 160) with CD4expressing cells (CD4 HeLa) (D. C. Chan, et al., Proc. Natl. Acad. Sci., 95:15613-15617 (1998)).
(§1) Assessment of viral infectivity and syncytia formation were carried out as described by Eckert et al., Cell, 99:103-115 (1999). In both inhibition assays, peptide stocks were dissolved in dimethylsulfoxide and their concentrations determined by absorbance in guanidine at 280 nm. The final concentration of dimethylsulfoxide in tissue culture media was 1% in all experiments. Inhibition of cell-cell fusion (syncytia formation) (G. J. Nabel, Nature 410, 1002-1007 (2001); D. C. Chan, C. T. Chutkowski, P. S. Kim, Proc. Natl. Acad. Sci. 95, 15613-15617 (1998)) was assayed by co-culturing 3×10^4 Chinese hamster ovary (CHO) cells expressing HXB2 envelope and tat and rev with 5×10^4 HeLa cells expressing CD4 and LTR-driven β-galactosidase in the presence of varying concentrations of peptides. The CHO and HeLa cells were incubated in the presence of peptides for 20 hours, and stained with 5-bromo-4-chloro-3-indolyl-β-D-galactoside (X-gal) to detect the syncytia, which were visualized by microscopy and counted manually. In the viral infectivity assay, the ability of the peptides to inhibit HIV-1 infection was assayed using a recombinant luciferase-encoding HIV-1 (G. J. Nabel, Nature 410, 1002-1007 (2001); D. C. Chan, C. T. Chutkowski, P. S. Kim, Proc. Natl. Acad. Sci. 95, 15613-15617 (1998)). 293T cells were co-transfected with an envelope-deficient HIV-1 genome with a luciferase gene (NL43LucR-E-) [B. K. Chen, K. Saksela, R. Andino, D. Baltimore, J. Virol. 68, 654-660 (1994)] and the HXB2 gp160 expression vector (pCMVHXB2 gpl60). Low-speed centrifugation was used to clear the viral supernatants of cellular debris. The supernatant containing the viruses was used to infect HOS cells expressing CD4 and CXCR4 (HOS-CD4/Fusin cells, N. Landau, National Institutes of Health AIDS Reagent Program) in the presence of varying concentrations of peptides. The HOS cells were harvested 48 hours post-infection, and luciferase activity was monitored using a Wallac AutoLumat LB953 luminometer. In both assays, the IC50, the concentration needed to inhibit 50% of cell-cell fusion events or luciferase activity, was calculated from fitting the data to the equation, y=k/(1+[peptide]/IC50), where y=number of syncytia or luciferase activity and k is a scaling constant.
To test how well the HIV-1-neutralizing epitope was recapitulated, two assays were used to measure the potency of the designed peptides in inhibiting HIV-1 envelope-mediated membrane fusion. The biological activity of the designed peptides were first measured by their ability to inhibit fusion of HeLa cells expressing CD4 and chemokine receptors and CHO expressing HIV envelope protein (D. C. Chan, C. T. Chutkowski, P. S. Kim, Proc. Natl. Acad. Sci. 95: 15613-15617 (1998)).

The subject of data set [6] is recombinant luciferase-expressing HIV-1 infecting HOS-CD4/Fusin cells. As for the experimental part:
The peptides were tested for inhibition of CD4 positive target cells (HOST4) by recombinant, luciferase-expressing HIV-1 (D. C. Chan, C. T. Chutkowski, P. S. Kim, Proc. Natl. Acad. Sci. 95, 15613-15617 (1998)).
as §1
In a second assay, the ability of the peptides to inhibit HIV infection of HOS cells expressing CD4 and CXCR4 was measured, using a luciferase-based reporter assay (D. C. Chan, C. T. Chutkowski, P. S. Kim, Proc. Natl. Acad. Sci. 95: 15613-15617 (1998); Chen, B. K., et al.,J. Virol., 68(2):[…] (1994)).

The conditions of data set [7]: 10 μM; Gonzalez et al. 1996; cited from earlier work.

Values joined by “and” are separate entries in the source; they are usually repeats but may differ in a detail not shown here. Equal values may be shown once. Read-outs that look alike come from different tables or passages of the source.

In data set [1], C34-GCN4 peptide (designed binder) showed a Cell-Cell Fusion Assay (IC50 in nM) of 5 nM; a Viral Infectivity Assay (IC50 in nM) of 16 nM; an inhibition of cell-cell fusion, IC50 of 4.6 nM; an inhibition of viral infectivity, IC50 of 19 nM.

In data set [1], GCN4 homodimer displayed an inhibition of cell-cell fusion greater than 50 µM and an inhibition of viral infectivity greater than 50 µM.

“C34: linear C-peptide of HIV-1 gp41 (SEQ ID NO: 2), unstructured in solution [Peptide C34]”: the “[Θ]222 value” in data set [2] is −3,800 deg cm^2 dmol^−1. Moreover, the IC50 in data set [3] was 2.1 nM; in data set [4], 0.6 nM.

In turn, “Ac-WRMWDLEIKVYTLLIKNLILESEVQQLKNLVELR-NH2 (C-terminus assumed) [Peptide C34-GCN4]” registered a solubility of less than 1 µM. Further, in data set [2] (listed as C34-GCN4 peptide), the “[Θ]222 value” was −12,400 deg cm^2 dmol^−1 and −12,000 deg cm^2 dmol^−1. Moreover, the “inhibition of cell-cell fusion, in words” value in data set [5] is on record as “strong inhibitory potency”. Also, the IC50 in data set [5] (read-out: Cell-Cell Fusion Assay (IC50 in nM), CHO cells expressing HXB2 envelope co-cultured with CD4 HeLa cells, 20 hours, 1% DMSO) is 4.6 nM and 5 nM. For the same substance, the IC50 in data set [6] (read-out: Viral Infectivity Assay (IC50 in nM), HOS cells expressing CD4 and CXCR4, luciferase 48 hours post-infection, 1% DMSO) was 16 nM.

In the case of “GCN4 homodimer: covalent homodimer of CGG-GCN4”, the “transition midpoint under temperature denaturation” value in data set [7] is “over 100 °C”. Besides, in data set [5], the “inhibition of cell-cell fusion, in words” value was “no activity”. In addition, in data set [5] (CHO cells expressing HXB2 envelope co-cultured with CD4 HeLa cells, 20 hours, 1% DMSO), the “Cell-Cell Fusion Assay (IC50 in nM)” value is on record as “none”. The IC50 in data set [5] (read-out: no inhibitory activity in cell-cell fusion up to stated concentration, highest concentration without measurable inhibition) was greater than 50000 nM; in data set [6] (read-out: no inhibitory activity in viral infectivity up to stated concentration, highest concentration without measurable inhibition), greater than 50000 nM. Also, the “inhibition of viral infectivity, in words” value in data set [6] is “no activity”. In data set [6] (HOS cells expressing CD4 and CXCR4, luciferase 48 hours post-infection, 1% DMSO), the “Viral Infectivity Assay (IC50 in nM)” value was “none”.
